Source: PubChem BioAssay (NCI)
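Assay format: 96-well plates, 48-hour exposure. TGI marks complete inhibition of growth.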

Key:
Assay in all cases: inhibition of tumour cell growth, NCI panel, 48 h
A498 renal = test system: A498 renal
A549 NSCLC = test system: A549 NSCLC
ACHN renal = test system: ACHN renal
CCRF-CEM leukemia = test system: CCRF-CEM leukemia
DMS 114 small cell lung = test system: DMS 114 small cell lung
EKVX NSCLC = test system: EKVX NSCLC
HCT-116 colon = test system: HCT-116 colon
HL-60(TB) leukemia = test system: HL-60(TB) leukemia
HOP-62 NSCLC = test system: HOP-62 NSCLC
HOP-92 NSCLC = test system: HOP-92 NSCLC
HT29 colon = test system: HT29 colon
IGROV1 ovarian = test system: IGROV1 ovarian
K-562 leukemia = test system: K-562 leukemia
KM12 colon = test system: KM12 colon
M14 melanoma = test system: M14 melanoma
M19-MEL melanoma = test system: M19-MEL melanoma
MOLT-4 leukemia = test system: MOLT-4 leukemia
NCI-H226 lung = test system: NCI-H226 lung
NCI-H23 lung = test system: NCI-H23 lung
NCI-H460 lung = test system: NCI-H460 lung
NCI-H522 lung = test system: NCI-H522 lung
OVCAR-5 ovarian = test system: OVCAR-5 ovarian
OVCAR-8 ovarian = test system: OVCAR-8 ovarian
RXF 393 renal = test system: RXF 393 renal
RXF-631 renal = test system: RXF-631 renal
SF-295 CNS = test system: SF-295 CNS
SK-MEL-28 melanoma = test system: SK-MEL-28 melanoma
SK-OV-3 ovarian = test system: SK-OV-3 ovarian
SNB-19 CNS = test system: SNB-19 CNS
SNB-78 CNS = test system: SNB-78 CNS
SR leukemia = test system: SR leukemia
TK-10 renal = test system: TK-10 renal
U251 CNS = test system: U251 CNS
UACC-257 melanoma = test system: UACC-257 melanoma
UO-31 renal = test system: UO-31 renal
786-0 renal = test system: 786-0 renal
CAKI-1 renal = test system: CAKI-1 renal
COLO 205 colon = test system: COLO 205 colon
DLD-1 colon = test system: DLD-1 colon
DMS 273 small cell lung = test system: DMS 273 small cell lung
HCC-2998 colon = test system: HCC-2998 colon
HCT-15 colon = test system: HCT-15 colon
HOP-18 NSCLC = test system: HOP-18 NSCLC
KM20L2 colon = test system: KM20L2 colon
LOX IMVI melanoma = test system: LOX IMVI melanoma
LXFL 529 NSCLC = test system: LXFL 529 NSCLC
MALME-3M melanoma = test system: MALME-3M melanoma
OVCAR-3 ovarian = test system: OVCAR-3 ovarian
OVCAR-4 ovarian = test system: OVCAR-4 ovarian
RPMI-8226 leukemia = test system: RPMI-8226 leukemia
SF-268 CNS = test system: SF-268 CNS
SF-539 CNS = test system: SF-539 CNS
SK-MEL-2 melanoma = test system: SK-MEL-2 melanoma
SK-MEL-5 melanoma = test system: SK-MEL-5 melanoma
SN12C renal = test system: SN12C renal
SNB-75 CNS = test system: SNB-75 CNS
SW-620 colon = test system: SW-620 colon
UACC-62 melanoma = test system: UACC-62 melanoma

O=C(/C=C/c1ccc(O)cc1)OC[C@@H](O)COC1OC(CO)C(O)C(O)C1O (stereo not given in full)
TGI (A498 renal): > 100 µM | TGI (A549 NSCLC): > 100 µM | TGI (ACHN renal): > 100 µM | TGI (CCRF-CEM leukemia): > 100 µM | TGI (DMS 114 small cell lung): > 100 µM | TGI (EKVX NSCLC): > 100 µM | TGI (HCT-116 colon): > 100 µM | TGI (HL-60(TB) leukemia): > 100 µM | TGI (HOP-62 NSCLC): > 100 µM | TGI (HOP-92 NSCLC): > 100 µM | TGI (HT29 colon): > 100 µM | TGI (IGROV1 ovarian): > 100 µM | TGI (K-562 leukemia): > 100 µM | TGI (KM12 colon): > 100 µM | TGI (M14 melanoma): > 100 µM | TGI (M19-MEL melanoma): > 100 µM | TGI (MOLT-4 leukemia): > 100 µM | TGI (NCI-H226 lung): > 100 µM | TGI (NCI-H23 lung): > 100 µM | TGI (NCI-H460 lung): > 100 µM | TGI (NCI-H522 lung): > 100 µM | TGI (OVCAR-5 ovarian): > 100 µM | TGI (OVCAR-8 ovarian): > 100 µM | TGI (RXF 393 renal): > 100 µM | TGI (RXF-631 renal): > 100 µM | TGI (SF-295 CNS): > 100 µM | TGI (SK-MEL-28 melanoma): > 100 µM | TGI (SK-OV-3 ovarian): > 100 µM | TGI (SNB-19 CNS): > 100 µM | TGI (SNB-78 CNS): > 100 µM | TGI (SR leukemia): > 100 µM | TGI (TK-10 renal): > 100 µM | TGI (U251 CNS): > 100 µM | TGI (UACC-257 melanoma): > 100 µM | TGI (UO-31 renal): > 100 µM

O=C1c2ccccc2C2(Br)C(=O)c3ccccc3C12 (stereo not given)
TGI (786-0 renal): > 100 µM | TGI (A549 NSCLC): > 100 µM | TGI (ACHN renal): > 100 µM | TGI (CAKI-1 renal): > 100 µM | TGI (CCRF-CEM leukemia): > 100 µM | TGI (COLO 205 colon): > 100 µM | TGI (DLD-1 colon): > 100 µM | TGI (DMS 114 small cell lung): > 100 µM | TGI (DMS 273 small cell lung): 42.5 µM | TGI (EKVX NSCLC): > 100 µM | TGI (HCC-2998 colon): > 100 µM | TGI (HCT-15 colon): > 100 µM | TGI (HL-60(TB) leukemia): > 100 µM | TGI (HOP-18 NSCLC): > 100 µM | TGI (HOP-62 NSCLC): > 100 µM | TGI (HOP-92 NSCLC): > 100 µM | TGI (HT29 colon): > 100 µM | TGI (IGROV1 ovarian): > 100 µM | TGI (K-562 leukemia): > 100 µM | TGI (KM12 colon): > 100 µM | TGI (KM20L2 colon): > 100 µM | TGI (LOX IMVI melanoma): 26.4 µM | TGI (LXFL 529 NSCLC): > 100 µM | TGI (M14 melanoma): > 100 µM | TGI (M19-MEL melanoma): > 100 µM | TGI (MALME-3M melanoma): > 100 µM | TGI (MOLT-4 leukemia): > 100 µM | TGI (NCI-H23 lung): > 100 µM | TGI (NCI-H460 lung): > 100 µM | TGI (NCI-H522 lung): > 100 µM | TGI (OVCAR-3 ovarian): > 100 µM | TGI (OVCAR-4 ovarian): > 100 µM | TGI (OVCAR-5 ovarian): > 100 µM | TGI (OVCAR-8 ovarian): > 100 µM | TGI (RPMI-8226 leukemia): > 100 µM | TGI (RXF 393 renal): > 100 µM | TGI (RXF-631 renal): 28.1 µM | TGI (SF-268 CNS): > 100 µM | TGI (SF-295 CNS): > 100 µM | TGI (SF-539 CNS): > 100 µM | TGI (SK-MEL-2 melanoma): > 100 µM | TGI (SK-MEL-28 melanoma): > 100 µM | TGI (SK-MEL-5 melanoma): > 100 µM | TGI (SK-OV-3 ovarian): > 100 µM | TGI (SN12C renal): > 100 µM | TGI (SNB-75 CNS): > 100 µM | TGI (SW-620 colon): > 100 µM | TGI (TK-10 renal): > 100 µM | TGI (U251 CNS): > 100 µM | TGI (UACC-257 melanoma): > 100 µM | TGI (UACC-62 melanoma): > 100 µM | TGI (UO-31 renal): > 100 µM

Cc1ccc(SC(C)/C=C/NNC2=NC(c3ccccc3)C(c3ccccc3)=NN2)cc1 (stereo not given)
TGI (786-0 renal): > 100 µM | TGI (A498 renal): > 100 µM | TGI (A549 NSCLC): > 100 µM | TGI (ACHN renal): > 100 µM | TGI (CAKI-1 renal): 46.6 µM | TGI (CCRF-CEM leukemia): > 100 µM | TGI (COLO 205 colon): > 100 µM | TGI (DLD-1 colon): > 100 µM | TGI (DMS 114 small cell lung): > 100 µM | TGI (DMS 273 small cell lung): > 100 µM | TGI (EKVX NSCLC): > 100 µM | TGI (HCC-2998 colon): 98.2 µM | TGI (HCT-116 colon): > 100 µM | TGI (HCT-15 colon): > 100 µM | TGI (HL-60(TB) leukemia): 42.5 µM | TGI (HOP-18 NSCLC): > 100 µM | TGI (HOP-92 NSCLC): 66.1 µM | TGI (HT29 colon): 27.3 µM | TGI (IGROV1 ovarian): > 100 µM | TGI (K-562 leukemia): > 100 µM | TGI (KM12 colon): > 100 µM | TGI (KM20L2 colon): 27.6 µM | TGI (LOX IMVI melanoma): > 100 µM | TGI (LXFL 529 NSCLC): > 100 µM | TGI (M14 melanoma): > 100 µM | TGI (M19-MEL melanoma): > 100 µM | TGI (MALME-3M melanoma): > 100 µM | TGI (MOLT-4 leukemia): > 100 µM | TGI (NCI-H226 lung): 98.1 µM | TGI (NCI-H23 lung): > 100 µM | TGI (NCI-H460 lung): > 100 µM | TGI (NCI-H522 lung): 88.9 µM | TGI (OVCAR-3 ovarian): > 100 µM | TGI (OVCAR-4 ovarian): > 100 µM | TGI (OVCAR-5 ovarian): 89.1 µM | TGI (OVCAR-8 ovarian): > 100 µM | TGI (RPMI-8226 leukemia): > 100 µM | TGI (SF-268 CNS): > 100 µM | TGI (SF-295 CNS): > 100 µM | TGI (SF-539 CNS): > 100 µM | TGI (SK-MEL-2 melanoma): > 100 µM | TGI (SK-MEL-28 melanoma): > 100 µM | TGI (SK-MEL-5 melanoma): 31.4 µM | TGI (SK-OV-3 ovarian): > 100 µM | TGI (SN12C renal): > 100 µM | TGI (SNB-75 CNS): > 100 µM | TGI (SNB-78 CNS): > 100 µM | TGI (SR leukemia): 65.1 µM | TGI (SW-620 colon): > 100 µM | TGI (TK-10 renal): > 100 µM | TGI (UACC-257 melanoma): > 100 µM | TGI (UACC-62 melanoma): 48.7 µM | TGI (UO-31 renal): 57.5 µM

COc1ccccc1C1C(C(=O)O)=C(CO)Oc2cc3c(cc21)OCO3 (stereo not given)
TGI (A498 renal): > 100 µM | TGI (ACHN renal): > 100 µM | TGI (CAKI-1 renal): > 100 µM | TGI (CCRF-CEM leukemia): > 100 µM | TGI (COLO 205 colon): > 100 µM | TGI (DMS 114 small cell lung): > 100 µM | TGI (DMS 273 small cell lung): > 100 µM | TGI (EKVX NSCLC): > 100 µM | TGI (HCT-15 colon): > 100 µM | TGI (HL-60(TB) leukemia): > 100 µM | TGI (HOP-18 NSCLC): > 100 µM | TGI (HOP-92 NSCLC): > 100 µM | TGI (HT29 colon): > 100 µM | TGI (IGROV1 ovarian): > 100 µM | TGI (K-562 leukemia): > 100 µM | TGI (KM20L2 colon): > 100 µM | TGI (LOX IMVI melanoma): > 100 µM | TGI (LXFL 529 NSCLC): > 100 µM | TGI (M14 melanoma): > 100 µM | TGI (M19-MEL melanoma): > 100 µM | TGI (MALME-3M melanoma): > 100 µM | TGI (MOLT-4 leukemia): > 100 µM | TGI (NCI-H226 lung): > 100 µM | TGI (NCI-H23 lung): > 100 µM | TGI (NCI-H460 lung): > 100 µM | TGI (NCI-H522 lung): > 100 µM | TGI (OVCAR-3 ovarian): > 100 µM | TGI (OVCAR-8 ovarian): > 100 µM | TGI (RPMI-8226 leukemia): > 100 µM | TGI (SF-268 CNS): > 100 µM | TGI (SF-295 CNS): > 100 µM | TGI (SF-539 CNS): > 100 µM | TGI (SK-MEL-2 melanoma): > 100 µM | TGI (SK-MEL-28 melanoma): > 100 µM | TGI (SK-MEL-5 melanoma): > 100 µM | TGI (SK-OV-3 ovarian): > 100 µM | TGI (SN12C renal): > 100 µM | TGI (SNB-19 CNS): > 100 µM | TGI (SNB-75 CNS): > 100 µM | TGI (SNB-78 CNS): > 100 µM | TGI (SW-620 colon): > 100 µM | TGI (TK-10 renal): > 100 µM | TGI (U251 CNS): > 100 µM | TGI (UACC-62 melanoma): > 100 µM | TGI (UO-31 renal): > 100 µM
